Measurements from patent US9849104B2 (Gemphire Therapuetics Inc., priority 2015, dated 2017).
Like-named read-outs stand apart in the source and are kept apart here.

Key:
CYP2A6 = target: T1, CYP2A6 (Homo sapiens, UniProt P11509); assay: Inhibition of CYP2A6 (7-hydroxylation of coumarin) in human liver microsomes; assay type: in vitro ADME; settings: probe coumarin (7-hydroxylation), 4 μM, read-out: inhibitory activity toward CYP2A6
T1 construct: Human livers, HLM141, HLM143, and HLM144 were selected from the University of Washington Human Liver Bank for this study; Microsomes were prepared; tissue University of Washington Human Liver Bank HLM141, HLM143, HLM144; host or cells: human liver microsomes
T1 sequence (P11509 1-494): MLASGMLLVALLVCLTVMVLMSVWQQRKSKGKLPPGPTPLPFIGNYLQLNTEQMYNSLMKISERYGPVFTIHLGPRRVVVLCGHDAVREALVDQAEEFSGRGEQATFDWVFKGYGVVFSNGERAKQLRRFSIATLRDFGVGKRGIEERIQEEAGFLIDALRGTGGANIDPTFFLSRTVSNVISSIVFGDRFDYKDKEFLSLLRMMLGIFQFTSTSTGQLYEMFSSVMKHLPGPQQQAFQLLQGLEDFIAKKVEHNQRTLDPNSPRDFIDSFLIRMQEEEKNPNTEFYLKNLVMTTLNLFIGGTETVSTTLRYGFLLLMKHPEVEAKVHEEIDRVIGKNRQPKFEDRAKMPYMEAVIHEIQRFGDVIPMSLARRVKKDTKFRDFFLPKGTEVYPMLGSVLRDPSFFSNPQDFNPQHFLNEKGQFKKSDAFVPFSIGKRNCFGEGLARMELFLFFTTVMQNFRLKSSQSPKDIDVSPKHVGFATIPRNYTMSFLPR
Procedure: (§1) Human livers, HLM141, HLM143, and HLM144 were selected from the University of Washington Human Liver Bank for this study. […] The seven isoforms and the metabolic pathway of each of the probes used to monitor specific isoform activity are listed below.
CYP2A6: The 7-hydroxylation of coumarin (4 μM). The reaction is monitored by HPLC using florescence detection.

CYP2C9 = target: T2, CYP2C9 (Homo sapiens, UniProt P11712); assay: Inhibition of CYP2C9 (7-hydroxylation of (S)-warfarin) in human liver microsomes; assay type: in vitro ADME; settings: probe (S)-warfarin (7-hydroxylation), 4 μM, read-out: inhibitory activity toward CYP2C9
T2 construct: Human livers, HLM141, HLM143, and HLM144 were selected from the University of Washington Human Liver Bank for this study; Microsomes were prepared; tissue University of Washington Human Liver Bank HLM141, HLM143, HLM144; host or cells: human liver microsomes
Procedure: as §1
CYP2C9: The 7-hydroxylation of (S)-warfarin (4 μM). The reaction is monitored by quantitative GC/MS using 7-hydroxywarfarin-(d5-phenyl) as the internal standard.

[1] = tested on: CYP1A2, CYP2A6, CYP2C9, CYP2C19, CYP2D6, CYP2E1, CYP3A4; assay: in vitro; settings: human, microsomes
Excerpt: Human livers, HLM141, HLM143, and HLM144 were selected from the University of Washington Human Liver Bank for this study. […] The actual concentrations used for each of the other probes are specified below. […] The seven isoforms and the metabolic pathway of each of the probes used to monitor specific isoform activity are listed below.

[2] = Effect of gemcabene on simvastatin pharmacokinetics (active HMG-Co-A reductase inhibitor concentration); assay type: in vivo, human; settings: simvastatin alone vs in combination with gemcabene
[3] = Musculoskeletal adverse events, study A4141001; assay type: in vivo, human
[4] = tested on: STAM model of non-alcoholic steatohepatitis (NASH); settings: for Fasting blood glucose (mean ± SD): Day 18, 8 hours of fasting; for Non-fasting blood glucose (mean ± SD): termination (Day 21); for Plasma GGT (mean ± SD) / Plasma creatinine (mean ± SD) / Plasma ALP (mean ± SD): mouse, in vivo, po
Procedure: Telmisartan (Micardis®) was purchased from Boehringer Ingelheim GmbH (Germany) and dissolved in pure water.
Telmisartan was administered at a dose of 10 mg/kg once daily.
Eight-hour fasting blood glucose was measured in whole blood using Life Check (EIDIA Co. Ltd., Japan). For plasma biochemistry, eight-hour fasting blood was collected in polypropylene tubes with anticoagulant (Novo-Heparin, Mochida Pharmaceutical, Japan) and centrifuged at 1,000×g for 15 minutes at 4° C. The supernatant was collected and stored at −80° C. until use. Plasma insulin levels were quantified by Ultra Sensitive Mouse Insulin ELISA kit (Morinaga Institute of Biological Science, Inc., Japan).
On the day of termination, non-fasting blood glucose was measured in whole blood using Life Check. For plasma biochemistry, non-fasting blood was collected in polypropylene tubes with anticoagulant (Novo-Heparin) and centrifuged at 1,000×g for 15 minutes at 4° C. The supernatant was collected and stored at −80° C. until use. Plasma ALT, AST, ALP, GGT, BUN, creatinine and total bilirubin levels were measured by FUJI DRI-CHEM 7000 (Fujifilm Corporation, Japan). Plasma ketone body levels were quantified by EnzyChrom™ Ketone Body Assay Kit (BioAssay Systems, USA).
Liver samples were homogenized in chloroform-methanol (2:1, v/v) and incubated overnight at room temperature. After washing with chloroform-methanol-water (8:4:3, v/v/v), the extracts were evaporated to dryness, and dissolved in isopropanol. Liver triglyceride content was measured by Triglyceride E-test (Wako Pure Chemical Industries). […]
Statistical analyses were performed using Bonferroni Multiple Comparison Test on GraphPad Prism 6 (GraphPad Software Inc., USA). […] Results were expressed as mean±SD.
The viability, clinical signs and behavior were monitored daily. Body weight was recorded before the treatment. […] The animals were sacrificed by exsanguinations through direct cardiac puncture under isoflurane anesthesia (Pfizer Inc.) at 9 weeks of age.

fibrinogen = assay: Fibrinogen in hypercholesterolemic patients, post hoc analysis of Study A4141001; assay type: in vivo, human; settings: for Difference in fibrinogen change, Gem-placebo: subgroup baseline >400 mg/dL
Procedure: Week 0) and the end (Visit T8, Week 8). Analyses of covariance (ANCOVA) methods used in the original study A4141001 were again utilized in these analyses. For fibrinogen, baseline was defined as the last pretreatment visit, and endpoint was the last visit up to and including the day after last dose of medication. The least-squares means and p-values for change from baseline in fibrinogen were calculated using an ANCOVA model with the effects of baseline lipid value and treatment. Also, medians and p-values for percent change from baseline. […] This, consequently, was the definition for the modified intent-to treat (MITT) population.

[5] = gemcabene 300 and 900 mg QD with atorvastatin 80 mg QD
[6] = A4141001, patient type IIa + IIb
[7] = STAM NASH mice, 30 mg/kg PO QD, 30 mg/kg
[8] = STAM NASH mice, 100 mg/kg PO QD, 100 mg/kg
[9] = STAM NASH mice, 100 mg/kg PO QD, Day 21, 100 mg/kg
[10] = STAM NASH mice, 300 mg/kg PO QD, 300 mg/kg

T2 sequence (P11712 whole entry): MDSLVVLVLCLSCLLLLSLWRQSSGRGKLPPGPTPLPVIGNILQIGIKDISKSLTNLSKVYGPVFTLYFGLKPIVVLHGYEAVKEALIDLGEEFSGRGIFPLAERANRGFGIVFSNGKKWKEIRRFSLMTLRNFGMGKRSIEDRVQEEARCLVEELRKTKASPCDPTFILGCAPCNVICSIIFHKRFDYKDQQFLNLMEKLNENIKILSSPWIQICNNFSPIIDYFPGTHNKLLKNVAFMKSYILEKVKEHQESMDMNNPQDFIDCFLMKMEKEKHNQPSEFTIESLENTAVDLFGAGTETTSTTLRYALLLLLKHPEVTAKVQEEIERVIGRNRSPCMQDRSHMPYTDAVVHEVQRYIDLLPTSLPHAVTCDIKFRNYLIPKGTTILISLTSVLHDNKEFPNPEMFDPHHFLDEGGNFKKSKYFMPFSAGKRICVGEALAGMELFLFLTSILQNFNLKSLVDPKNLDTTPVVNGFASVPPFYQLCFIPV

Compound: CC(C)(CCCCOCCCCC(C)(C)C(=O)O)C(=O)O [Gemcabene, 6,6′-oxybis(2,2-dimethylhexanoic acid)]
- inhibition at 1500 µM (CYP2A6): 10 to 20%
- inhibition at 1500 µM (CYP2C9): 10 to 20%
- IC50 [1]: > 454 µg/mL
- effect on active HMG-Co-A reductase inhibitor pharmacokinetics after simvastatin (80 mg) [2]: lowers Cmax but has no effect on AUC
- % = the percent of patients experiencing a musculoskeletal adverse event ([3]; A4141001, patient type IIa): 0.0%
- No = the number of muscle skeletal adverse events ([3]; A4141001, patient type IIa): 0
- % = the percent of patients experiencing a musculoskeletal adverse event [3, 6]: 0.0%
- No = the number of muscle skeletal adverse events [3, 6]: 0
- % = the percent of patients experiencing a musculoskeletal adverse event ([3]; A4141001, patient type IIb): 0.0%
- No = the number of muscle skeletal adverse events ([3]; A4141001, patient type IIb): 0
- NAFLD Activity score, NAS (mean ± SD) ([4]; STAM NASH mice, 30 mg/kg PO QD 6-9 wks, 30 mg/kg): significant reduction
- Fasting blood glucose (mean ± SD) [4, 7]: no significant differences
- Liver triglyceride (mean ± SD) ([4]; STAM NASH mice, 30 mg/kg PO QD, Day 21, 30 mg/kg): no significant differences
- Non-fasting blood glucose (mean ± SD) [4, 7]: no significant differences
- Fasting blood glucose (mean ± SD) [4, 8]: no significant differences
- Liver triglyceride (mean ± SD) [4, 9]: no significant differences
- Plasma ALT (mean ± SD) [4, 9]: significant decrease
- Non-fasting blood glucose (mean ± SD) [4, 8]: no significant differences
- NAFLD Activity score, NAS (mean ± SD) ([4]; STAM NASH mice, 300 mg/kg PO QD 6-9 wks, 300 mg/kg): significant reduction
- Fasting blood glucose (mean ± SD) [4, 10]: no significant differences
- Liver triglyceride (mean ± SD) ([4]; STAM NASH mice, 300 mg/kg PO QD, Day 21, 300 mg/kg): no significant differences
- Non-fasting blood glucose (mean ± SD) [4, 10]: no significant differences
- fibrosis area compared with the Vehicle in NASH group ([4]; STAM NASH mice, all treatment groups (gemcabene 30, 100, 300 mg/kg; telmisartan 10 mg/kg)): significantly reduced
- Plasma GGT (mean ± SD) ([4]; 30 mg/kg): 1 ± 0 U/L
- Plasma creatinine (mean ± SD) ([4]; 30 mg/kg): 0.1 ± 0.0 mg/dL
- Plasma ALP (mean ± SD) ([4]; 100 mg/kg): significant increases
- Plasma GGT (mean ± SD) ([4]; 100 mg/kg): 1 ± 0 U/L
- Plasma ALP (mean ± SD) ([4]; 300 mg/kg): significant increases
- Plasma GGT (mean ± SD) ([4]; 300 mg/kg): 1 ± 0 U/L
- Plasma creatinine (mean ± SD) ([4]; 300 mg/kg): significant increase
- Difference in fibrinogen change = Gem − Placebo (fibrinogen; MITT, Gemcabene 300 mg): −13.0
- Difference in fibrinogen change, Gem-placebo (fibrinogen; Gem 300 mg): 5.0
- Difference in fibrinogen change, Gem-placebo (fibrinogen; Gem 900 mg): −34.0
- effect on atorvastatin pharmacokinetics (Cmax, tmax, AUC(0-24), t½, atorvastatin and metabolites) [5]: no clinically important effect
